The conditions of data set [1]: at a pH of 6.4.
The conditions of data set [2]: cited from earlier work.
The nature of data set [3]: Compatibility of quaternary ammonium preservative with brimonidine (precipitation). In kind it is physicochemical. Particulars: pH of around 6.0. An excerpt:
Benzododecinium bromide forms an ion pair with brimonidine, thereby neutralizing the charge of brimonidine.
Benzododecinium halide (e.g., bromide) forms an ion pair with brimonidine, thereby neutralizing the charge of brimonidine. […] Thus it was surprising to find that benzododecinium halide is compatible with brimonidine.

Read-outs that look alike come from different tables or passages of the source.

On to `Brc1c(NC2=NCCN2)ccc2nccnc12` [Brimonidine], for which the ionized entry in data set [1] is recorded as “about 90%”.

On to brimonidine tartrate, for which the Solubility is recorded as at least 164.4 in data set [2] (Study 1, pH 5.55); 132.6 in data set [2] (Study 1, pH 5.92); 30.4 in data set [2] (Study 1, pH 6.14); 7.55 in data set [2] (Study 1, pH 6.57); 2.69 in data set [2] (Study 1, pH 7); 1.17 in data set [2] (Study 1, pH 7.45). For the same molecule, the Solubility is listed as 0.62 in data set [2] (Study 1, pH 7.83); at least 200.6 in data set [2] (Study 2, pH 5.5); 160.8 in data set [2] (Study 2, pH 5.92); 50.1 in data set [2] (Study 2, pH 6.06); 3.19 in data set [2] (Study 2, pH 6.9); 1.19 in data set [2] (Study 2, pH 7.4). Moreover, the Solubility in data set [2] (Study 2, pH 7.77) is listed as 0.63; in data set [2] (Study 2, pH 7.86), 0.58; in data set [2] (Study 2, pH 7.88), 0.54.

As to `CCCCCCCCCCCC[N+](C)(C)Cc1ccccc1.[Br-]` [benzododecinium bromide], the precipitation with brimonidine entry in data set [3] was “does not form a precipitation with brimonidine”.

For benzalkonium chloride, the precipitation with brimonidine result in data set [3] is reported as “forms a hazy solution”.

The record behind these values is US10517869B2 (SENTISS PHARMA PRIVATE LIMITED, priority 2013, dated 2019).
